Reference: article PMC6222779, “Enzyme-Site Blocking Combined with Optimization of Molecular Docking for Efficient Discovery of Potential Tyrosinase Specific Inhibitors from Puerariae lobatae Radix” (Molecules : A Journal of Synthetic Chemistry and Natural …, 2018)
Read-outs that look alike come from different tables or passages of the source.

Tests used:
[1] = target: T1, TYR (Agaricus bisporus, UniProt C7FF04); assay: TYR inhibit assay (spectrophotometry, L-tyrosine substrate); assay type: biochemical; set-up: purchased Sigma-Aldrich
Method: TYR inhibition by PLR extract solution, selected compounds and Kojic acid was analyzed by spectrophotometry. The solution comprised 50 µL of the mixed ligand solution (the corresponding ligand standards were diluted 50-fold with PBS) incubated with 50 µL TYR solution (0.1 U/mL ) for 30 min at room temperature, followed by the addition of 100 µL L-tyrosine (0.4 mM) and incubation for another 30 min at 30 °C. Absorbance was measured in triplicate at 480 nm and inhibition ratios were calculated from the mean of the triplicate observations according to Equation (2):(2) Inhibitory Ratio (%) = Ab−Ae/Ab × 100%, where Ab and Ae represented the absorption of blank groups and experiment groups, respectively.
Target sequence in this assay (C7FF04 1-392): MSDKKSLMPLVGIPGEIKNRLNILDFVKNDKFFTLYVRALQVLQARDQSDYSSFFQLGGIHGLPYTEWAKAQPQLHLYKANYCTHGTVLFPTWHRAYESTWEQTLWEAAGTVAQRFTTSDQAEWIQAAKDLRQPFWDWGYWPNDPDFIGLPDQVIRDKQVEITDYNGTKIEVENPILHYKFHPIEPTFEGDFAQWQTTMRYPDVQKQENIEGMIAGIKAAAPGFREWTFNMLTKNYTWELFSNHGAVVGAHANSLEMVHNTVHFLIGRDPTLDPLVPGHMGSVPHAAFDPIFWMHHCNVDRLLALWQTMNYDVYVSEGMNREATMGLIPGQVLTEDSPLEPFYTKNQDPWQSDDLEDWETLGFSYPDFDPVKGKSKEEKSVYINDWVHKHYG

[2] = target: T1, TYR; assay: TYR-site blocking affinity ultrafiltration screening with HPLC; details: specific ligand when (Ab − Ae)/Ab ≥ 50% and (Ac − Ae)/Ac ≥ 50%; TYR 0.1 mg/mL, 30 °C, 30 min, 5000× g; peaks of PLR extract
Target sequence in this assay (C7FF04 1-392 limits assumed): as the sequence (C7FF04 1-392) above
Method: PLR-extract solution (100 µL) mixed with 100 µL diluted TYR solution and incubated at the best UF parameters. The unbound compounds can pass through the ultrafiltration membrane into the filtrates (F1), whereas the enzyme-ligand complexes remained in the chamber. After washing the retained complexes twice with 200 µL PBS (pH 6.8) to remove the residual unbound compounds, 200 µL methanol (80% (v/v)) was added into chamber and ultrasonic for 15 min to disrupt the complexes and release the ligands. The mixture was then centrifuge at 5000× g for 15 min, the filtrates (F2) containing the selected compounds were passed through a 0.45 µm filter membrane prior to HPLC analysis. For blank groups, PBS (pH 6.8) containing 2% DMSO was used to incubate with the TYR solution, followed by performance of the protocol described here. All experiments were performed in triplicate.
The PLR extract solution was added to the reaction solution and the protocol described in Section 2.5 was followed prior to HPLC analysis. All experiments were performed in triplicate.

[3] = TYR inhibitory activity, L-tyrosine 0.4 mM, absorbance at 480 nm, triplicate, read-out: IC50 ± SD

| SMILES | IC50 [1] [µM] | binding to TYR in ultrafiltration with kojic acid site blocking [2] | IC50 [1, 3] [µM] |
| --- | --- | --- | --- |
| O=c1c(-c2ccc(O)cc2)coc2cc(O[C@@H]3O[C@H](CO)[C@@H](O)[C@H](O)[C@H]3O)ccc12 [Daidzin, daidzin] | > 500 | potential specific TYR ligands |  |
| O=c1c(-c2ccc(O)cc2)coc2cc(O[C@@H]3O[C@H](CO)[C@@H](O)[C@H](O)[C@H]3O)cc(O)c12 [Genistin, genistin] |  | potential specific TYR ligands | > 500 |
| O=c1c(-c2ccc(O)cc2)coc2c(C3OC(COC4OCC(O)(CO)C4O)C(O)C(O)C3O)c(O)ccc12 (stereo not shown) [Mirificin, mirificin] |  | potential specific TYR ligands | 12.7 ± 2.77 |
| O=c1c(-c2ccc(O)cc2)coc2c([C@@H]3O[C@H](CO)[C@@H](O)[C@H](O)[C@H]3O)c(O)ccc12 [Puerarin, puerarin] | 9.83 ± 1.45 | potential specific TYR ligands |  |
| O=c1c(-c2ccc(O)cc2)coc2c(C3OC(COC4OCC(O)(CO)C4O)C(O)C(O)C3O)c(O)cc(O)c12 (stereo not shown) [compound 7, genistein-8-C-apiosyl(16)-glucoside] |  | not recognized as specific TYR inhibitors |  |
| COc1ccc2c(c1)OC(=O)C=C(c1ccc(O)cc1)C(OC1OC(CO)C(O)C(O)C1O)C2 (stereo not shown) [compound 11, sophoroside A] |  | not recognized as specific TYR inhibitors |  |
